From PubChem BioAssay AID1963979 (Molecular Pharmacology Branch, DTP, NCI, 2024)

Tested on: 361931-004-R-J1-PDC multicell spheroid viability
Assay: Anticancer human tumor 361931-004-R-J1-PDC patient-derived colon adenocarcinoma cell line growth inhibition [PI3K]
Details: for IC50: curve of first compound; for viability, T/C: stronger effect = lower value
Outline: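 We assembled tumor spheroids that included a stromal compartment of HUVEC and MSCs, then exposed them to targeted agents alone and together with PI3K pathway inhibitors. Concentration series descended by half-log from clinically achievable Cmax levels. Viability served as the endpoint.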

[1] = second compound 0.00316 µM, first compound 0.0316 µM
[2] = second compound 0.00316 µM, first compound 0.1 µM
[3] = second compound 0.00316 µM, first compound 0.316 µM
[4] = second compound 0.00316 µM, first compound 1 µM
[5] = second compound 0.00316 µM, first compound 3.16 µM
[6] = second compound 0.00316 µM, first compound 10 µM
[7] = second compound 0.01 µM, first compound 0.0316 µM
[8] = second compound 0.01 µM, first compound 0.1 µM
[9] = second compound 0.01 µM, first compound 0.316 µM
[10] = second compound 0.01 µM, first compound 1 µM
[11] = second compound 0.01 µM, first compound 3.16 µM
[12] = second compound 0.01 µM, first compound 10 µM
[13] = second compound 0.0316 µM, first compound 0.0316 µM
[14] = second compound 0.0316 µM, first compound 0.1 µM
[15] = second compound 0.0316 µM, first compound 0.316 µM
[16] = second compound 0.0316 µM, first compound 1 µM
[17] = second compound 0.0316 µM, first compound 3.16 µM
[18] = second compound 0.0316 µM, first compound 10 µM
[19] = second compound 0.1 µM, first compound 0.0316 µM
[20] = second compound 0.1 µM, first compound 0.1 µM
[21] = second compound 0.1 µM, first compound 0.316 µM
[22] = second compound 0.1 µM, first compound 1 µM
[23] = second compound 0.1 µM, first compound 3.16 µM
[24] = second compound 0.1 µM, first compound 10 µM
[25] = second compound 0.316 µM, first compound 0.0316 µM
[26] = second compound 0.316 µM, first compound 0.1 µM
[27] = second compound 0.316 µM, first compound 0.316 µM
[28] = second compound 0.316 µM, first compound 1 µM
[29] = second compound 0.316 µM, first compound 3.16 µM
[30] = second compound 0.316 µM, first compound 10 µM
[31] = second compound 1 µM, first compound 0.0316 µM
[32] = second compound 1 µM, first compound 0.1 µM
[33] = second compound 1 µM, first compound 0.316 µM
[34] = second compound 1 µM, first compound 1 µM
[35] = second compound 1 µM, first compound 3.16 µM
[36] = second compound 1 µM, first compound 10 µM
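Note: spheroids exposed to agents for seven days before readout.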

## C#Cc1c(F)ccc2cc(O)cc(-c3ncc4c(N5CC6CCC(C5)N6)nc(OCC56CCCN5CC(F)C6)nc4c3F)c12 (stereo not drawn) + CC(Nc1ccc2c(c1)OCCn1cc(N3C(=O)OCC3C(F)F)nc1-2)C(N)=O
Second compound 0.00316 µM
  IC50: > 10 µM
Second compound 0.01 µM
  IC50: > 10 µM
Second compound 0.0316 µM
  IC50: > 10 µM
Second compound 0.1 µM
  IC50: > 10 µM
Second compound 0.316 µM
  IC50: > 10 µM
Second compound 1 µM
  IC50: 1.76 µM
[1]
  viability, T/C: 99.7%
[2]
  viability, T/C: 108%
[3]
  viability, T/C: 93.5%
[4]
  viability, T/C: 100%
[5]
  viability, T/C: 89.6%
[6]
  viability, T/C: 62.3%
[7]
  viability, T/C: 101%
[8]
  viability, T/C: 104%
[9]
  viability, T/C: 81%
[10]
  viability, T/C: 92.1%
[11]
  viability, T/C: 75.3%
[12]
  viability, T/C: 71.3%
[13]
  viability, T/C: 101%
[14]
  viability, T/C: 100%
[15]
  viability, T/C: 106%
[16]
  viability, T/C: 81.3%
[17]
  viability, T/C: 84.3%
[18]
  viability, T/C: 55.9%
[19]
  viability, T/C: 93.8%
[20]
  viability, T/C: 94.2%
[21]
  viability, T/C: 76%
[22]
  viability, T/C: 75%
[23]
  viability, T/C: 68.5%
[24]
  viability, T/C: 53.4%
[25]
  viability, T/C: 86.6%
[26]
  viability, T/C: 86%
[27]
  viability, T/C: 68.2%
[28]
  viability, T/C: 55.2%
[29]
  viability, T/C: 57.1%
[30]
  viability, T/C: 50%
[31]
  viability, T/C: 78.7%
[32]
  viability, T/C: 71.2%
[33]
  viability, T/C: 64.6%
[34]
  viability, T/C: 53.4%
[35]
  viability, T/C: 46.2%
[36]
  viability, T/C: 35.1%

## CC1(C)CCC(Nc2ncc(C(F)(F)F)c(-c3c[nH]c4c(P(C)(C)=O)c(C#N)ccc34)n2)CN1 (stereo not drawn) + CC(Nc1ccc2c(c1)OCCn1cc(N3C(=O)OCC3C(F)F)nc1-2)C(N)=O
Second compound 0.00316 µM
  IC50: 4.25 µM
Second compound 0.01 µM
  IC50: 4.37 µM
Second compound 0.0316 µM
  IC50: 3.95 µM
Second compound 0.1 µM
  IC50: 3.55 µM
Second compound 0.316 µM
  IC50: 3.63 µM
Second compound 1 µM
  IC50: 2.06 µM
[1]
  viability, T/C: 72.1%
[2]
  viability, T/C: 78.7%
[3]
  viability, T/C: 76.4%
[4]
  viability, T/C: 72.6%
[5]
  viability, T/C: 66.1%
[6]
  viability, T/C: 3.82%
[7]
  viability, T/C: 84.2%
[8]
  viability, T/C: 79.8%
[9]
  viability, T/C: 75%
[10]
  viability, T/C: 77.9%
[11]
  viability, T/C: 67.8%
[12]
  viability, T/C: 4.66%
[13]
  viability, T/C: 78.7%
[14]
  viability, T/C: 69.8%
[15]
  viability, T/C: 70.8%
[16]
  viability, T/C: 67.1%
[17]
  viability, T/C: 62.2%
[18]
  viability, T/C: 3.26%
[19]
  viability, T/C: 84.2%
[20]
  viability, T/C: 72.3%
[21]
  viability, T/C: 64.9%
[22]
  viability, T/C: 69.5%
[23]
  viability, T/C: 57%
[24]
  viability, T/C: 3.49%
[25]
  viability, T/C: 66.6%
[26]
  viability, T/C: 64.2%
[27]
  viability, T/C: 61.1%
[28]
  viability, T/C: 68.4%
[29]
  viability, T/C: 55.5%
[30]
  viability, T/C: 3.54%
[31]
  viability, T/C: 64.5%
[32]
  viability, T/C: 52.5%
[33]
  viability, T/C: 56.4%
[34]
  viability, T/C: 56.7%
[35]
  viability, T/C: 46.2%
[36]
  viability, T/C: 3.28%

## CNC(=O)c1ccc(N2C(=S)N(c3ccc(C#N)c(C(F)(F)F)c3)C(=O)C2(C)C)cc1F + CC(Nc1ncnc2nc[nH]c12)c1cc2cccc(Cl)c2c(=O)n1-c1ccccc1
Second compound 0.0316 µM
  IC50: > 10 µM
Second compound 0.1 µM
  IC50: > 10 µM
Second compound 0.316 µM
  IC50: > 10 µM
Second compound 1 µM
  IC50: > 10 µM
Second compound 3.16 µM
  IC50: > 10 µM
Second compound 10 µM
  IC50: > 10 µM
[13]
  viability, T/C: 97.8%
[14]
  viability, T/C: 103%
[15]
  viability, T/C: 97.7%
[16]
  viability, T/C: 96.6%
[17]
  viability, T/C: 103%
[18]
  viability, T/C: 85.7%
[19]
  viability, T/C: 110%
[20]
  viability, T/C: 102%
[21]
  viability, T/C: 97.8%
[22]
  viability, T/C: 93.7%
[23]
  viability, T/C: 106%
[24]
  viability, T/C: 103%
[25]
  viability, T/C: 102%
[26]
  viability, T/C: 93%
[27]
  viability, T/C: 97.9%
[28]
  viability, T/C: 105%
[29]
  viability, T/C: 101%
[30]
  viability, T/C: 97.3%
[31]
  viability, T/C: 101%
[32]
  viability, T/C: 106%
[33]
  viability, T/C: 99.4%
[34]
  viability, T/C: 104%
[35]
  viability, T/C: 106%
[36]
  viability, T/C: 97.2%
Second compound 3.16 µM, first compound 0.0316 µM
  viability, T/C: 101%
Second compound 3.16 µM, first compound 0.1 µM
  viability, T/C: 109%
Second compound 3.16 µM, first compound 0.316 µM
  viability, T/C: 97.1%
Second compound 3.16 µM, first compound 1 µM
  viability, T/C: 101%
Second compound 3.16 µM, first compound 3.16 µM
  viability, T/C: 104%
Second compound 3.16 µM, first compound 10 µM
  viability, T/C: 93.4%
Second compound 10 µM, first compound 0.0316 µM
  viability, T/C: 107%
Second compound 10 µM, first compound 0.1 µM
  viability, T/C: 105%
Second compound 10 µM, first compound 0.316 µM
  viability, T/C: 104%
Second compound 10 µM, first compound 1 µM
  viability, T/C: 94.2%
Second compound 10 µM, first compound 3.16 µM
  viability, T/C: 112%
Second compound 10 µM, first compound 10 µM
  viability, T/C: 96.3%

## Cn1cnc2c(F)c(Nc3ccc(Br)cc3Cl)c(C(=O)NOCCO)cc21 + CC(Nc1ncnc2nc[nH]c12)c1cc2cccc(Cl)c2c(=O)n1-c1ccccc1
Second compound 0.0316 µM
  IC50: > 3 µM
Second compound 0.1 µM
  IC50: > 3 µM
Second compound 0.316 µM
  IC50: > 3 µM
Second compound 1 µM
  IC50: > 3 µM
Second compound 3.16 µM
  IC50: 2.88 µM
Second compound 10 µM
  IC50: 1.67 µM
Second compound 0.0316 µM, first compound 0.00949 µM
  viability, T/C: 98.1%
Second compound 0.0316 µM, first compound 0.03 µM
  viability, T/C: 95.3%
Second compound 0.0316 µM, first compound 0.0949 µM
  viability, T/C: 94%
Second compound 0.0316 µM, first compound 0.3 µM
  viability, T/C: 87.4%
Second compound 0.0316 µM, first compound 0.949 µM
  viability, T/C: 82%
Second compound 0.0316 µM, first compound 3 µM
  viability, T/C: 59.1%
Second compound 0.1 µM, first compound 0.00949 µM
  viability, T/C: 109%
Second compound 0.1 µM, first compound 0.03 µM
  viability, T/C: 96.2%
Second compound 0.1 µM, first compound 0.0949 µM
  viability, T/C: 94.2%
Second compound 0.1 µM, first compound 0.3 µM
  viability, T/C: 82.9%
Second compound 0.1 µM, first compound 0.949 µM
  viability, T/C: 87.4%
Second compound 0.1 µM, first compound 3 µM
  viability, T/C: 61.7%
Second compound 0.316 µM, first compound 0.00949 µM
  viability, T/C: 105%
Second compound 0.316 µM, first compound 0.03 µM
  viability, T/C: 102%
Second compound 0.316 µM, first compound 0.0949 µM
  viability, T/C: 88.8%
Second compound 0.316 µM, first compound 0.3 µM
  viability, T/C: 85.8%
Second compound 0.316 µM, first compound 0.949 µM
  viability, T/C: 82.9%
Second compound 0.316 µM, first compound 3 µM
  viability, T/C: 58.1%
Second compound 1 µM, first compound 0.00949 µM
  viability, T/C: 97.9%
Second compound 1 µM, first compound 0.03 µM
  viability, T/C: 94.4%
Second compound 1 µM, first compound 0.0949 µM
  viability, T/C: 93.3%
Second compound 1 µM, first compound 0.3 µM
  viability, T/C: 79.5%
Second compound 1 µM, first compound 0.949 µM
  viability, T/C: 81.4%
Second compound 1 µM, first compound 3 µM
  viability, T/C: 59.7%
Second compound 3.16 µM, first compound 0.00949 µM
  viability, T/C: 92.8%
Second compound 3.16 µM, first compound 0.03 µM
  viability, T/C: 96.2%
Second compound 3.16 µM, first compound 0.0949 µM
  viability, T/C: 90.9%
Second compound 3.16 µM, first compound 0.3 µM
  viability, T/C: 91.3%
Second compound 3.16 µM, first compound 0.949 µM
  viability, T/C: 77%
Second compound 3.16 µM, first compound 3 µM
  viability, T/C: 48.9%
Second compound 10 µM, first compound 0.00949 µM
  viability, T/C: 99.1%
Second compound 10 µM, first compound 0.03 µM
  viability, T/C: 92.4%
Second compound 10 µM, first compound 0.0949 µM
  viability, T/C: 86.9%
Second compound 10 µM, first compound 0.3 µM
  viability, T/C: 85.2%
Second compound 10 µM, first compound 0.949 µM
  viability, T/C: 66.5%
Second compound 10 µM, first compound 3 µM
  viability, T/C: 33%
